Measurements taken from patent US9924712B2, “Liquid concentrate formulation containing a pyripyropene insecticide II” (BASF SE, priority 2012, dated 2018).

Experiment: Dissolution and solvate precipitation of pyripyropene derivative I in propylene carbonate (Alkylene carbonate A)
Format: physicochemical

Appearance of solution on continued agitation (10 wt % and 20 wt % in propylene carbonate, after additional approximately 2 hours of agitation, precipitate crystalline by microscopy): started to turn cloudy
Time for complete dissolution (10 wt % and 20 wt % solutions in Alkylene carbonate A (propylene carbonate), with agitation, both cases): about 1 hour
SMILES: C[C@]1(COC(=O)C2CC2)[C@@H]2C[C@H](O)[C@@]3(C)Oc4cc(-c5cccnc5)oc(=O)c4[C@H](O)[C@@H]3[C@@]2(C)CC[C@@H]1OC(=O)C1CC1 [pyripyropene derivative I]
